# Laboratory results from PMC3814616, “BRAF inhibitors suppress apoptosis through off-target inhibition of JNK signaling” (eLife, 2013).
# Tests used:
# Experiment in all cases: Quantitative competitive binding assay (KINOMEscan)
# Conditions in all cases: for remaining binding at 0.05 µM: read-out: Percent control (50 nM); for remaining binding at 0.2 µM: read-out: Percent control (200 nM); for remaining binding at 1 µM: read-out: Percent control (1000 nM); for remaining binding at 10 µM: read-out: Percent control (10 μM)
# MKK7 (MAP2K7) = molecular target: T1, MKK7 (MAP2K7) (Homo sapiens, UniProt O14733)
# T1 construct: purchased KINOMEscan (DiscoveRx), San Diego, CA
# T1 sequence (O14733 1-419): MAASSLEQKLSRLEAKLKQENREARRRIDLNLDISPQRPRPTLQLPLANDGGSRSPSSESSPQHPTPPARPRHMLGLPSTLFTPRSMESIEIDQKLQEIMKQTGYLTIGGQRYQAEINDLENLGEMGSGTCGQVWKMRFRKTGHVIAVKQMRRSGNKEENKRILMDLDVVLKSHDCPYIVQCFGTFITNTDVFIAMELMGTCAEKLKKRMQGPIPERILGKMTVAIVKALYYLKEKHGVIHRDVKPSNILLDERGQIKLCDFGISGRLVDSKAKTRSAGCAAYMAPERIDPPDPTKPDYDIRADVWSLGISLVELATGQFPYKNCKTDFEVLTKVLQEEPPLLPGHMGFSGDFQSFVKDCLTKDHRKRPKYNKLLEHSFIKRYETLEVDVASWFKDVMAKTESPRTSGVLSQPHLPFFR
# TAOK2 = molecular target: T2, TAOK2 (Homo sapiens, UniProt Q9UL54)
# T2 construct: purchased KINOMEscan (DiscoveRx), San Diego, CA
# T2 sequence (Q9UL54 1-1235): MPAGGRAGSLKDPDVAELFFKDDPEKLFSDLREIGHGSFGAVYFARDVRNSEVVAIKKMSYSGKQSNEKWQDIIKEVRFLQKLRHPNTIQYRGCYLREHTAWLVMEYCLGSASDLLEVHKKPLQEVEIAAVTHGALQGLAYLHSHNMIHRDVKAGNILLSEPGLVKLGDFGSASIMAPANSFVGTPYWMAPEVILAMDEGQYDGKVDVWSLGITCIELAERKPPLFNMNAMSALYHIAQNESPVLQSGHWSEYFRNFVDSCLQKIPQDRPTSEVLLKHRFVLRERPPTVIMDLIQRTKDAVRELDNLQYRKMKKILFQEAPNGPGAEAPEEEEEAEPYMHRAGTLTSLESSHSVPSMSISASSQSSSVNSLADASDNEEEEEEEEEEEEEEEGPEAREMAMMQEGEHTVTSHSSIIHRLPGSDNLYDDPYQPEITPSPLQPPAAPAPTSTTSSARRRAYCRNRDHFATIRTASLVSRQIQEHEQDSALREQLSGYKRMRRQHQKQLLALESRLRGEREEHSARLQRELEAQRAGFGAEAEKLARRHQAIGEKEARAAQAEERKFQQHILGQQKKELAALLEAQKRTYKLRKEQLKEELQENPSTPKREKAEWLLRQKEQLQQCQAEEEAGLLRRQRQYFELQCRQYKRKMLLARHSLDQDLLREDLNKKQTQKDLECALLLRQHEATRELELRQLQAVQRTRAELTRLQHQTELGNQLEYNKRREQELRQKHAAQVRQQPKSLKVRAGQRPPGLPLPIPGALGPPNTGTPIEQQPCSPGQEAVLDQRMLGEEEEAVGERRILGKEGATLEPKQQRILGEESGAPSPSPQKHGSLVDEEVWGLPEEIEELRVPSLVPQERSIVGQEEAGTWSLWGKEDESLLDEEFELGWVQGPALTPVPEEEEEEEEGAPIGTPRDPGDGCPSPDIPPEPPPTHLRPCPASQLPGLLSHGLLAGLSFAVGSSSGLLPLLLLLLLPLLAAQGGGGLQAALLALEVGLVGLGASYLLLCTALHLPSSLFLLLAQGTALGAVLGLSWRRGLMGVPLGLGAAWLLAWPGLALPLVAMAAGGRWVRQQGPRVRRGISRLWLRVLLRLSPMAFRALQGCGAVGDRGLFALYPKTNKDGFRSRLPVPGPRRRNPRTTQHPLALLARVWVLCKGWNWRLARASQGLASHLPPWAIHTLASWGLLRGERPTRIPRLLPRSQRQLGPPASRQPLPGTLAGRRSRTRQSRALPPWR
# ASK2 (MAP3K6) = molecular target: T3, ASK2 (MAP3K6) (Homo sapiens, UniProt O95382)
# T3 construct: purchased KINOMEscan (DiscoveRx), San Diego, CA
# T3 sequence (O95382 1-1288): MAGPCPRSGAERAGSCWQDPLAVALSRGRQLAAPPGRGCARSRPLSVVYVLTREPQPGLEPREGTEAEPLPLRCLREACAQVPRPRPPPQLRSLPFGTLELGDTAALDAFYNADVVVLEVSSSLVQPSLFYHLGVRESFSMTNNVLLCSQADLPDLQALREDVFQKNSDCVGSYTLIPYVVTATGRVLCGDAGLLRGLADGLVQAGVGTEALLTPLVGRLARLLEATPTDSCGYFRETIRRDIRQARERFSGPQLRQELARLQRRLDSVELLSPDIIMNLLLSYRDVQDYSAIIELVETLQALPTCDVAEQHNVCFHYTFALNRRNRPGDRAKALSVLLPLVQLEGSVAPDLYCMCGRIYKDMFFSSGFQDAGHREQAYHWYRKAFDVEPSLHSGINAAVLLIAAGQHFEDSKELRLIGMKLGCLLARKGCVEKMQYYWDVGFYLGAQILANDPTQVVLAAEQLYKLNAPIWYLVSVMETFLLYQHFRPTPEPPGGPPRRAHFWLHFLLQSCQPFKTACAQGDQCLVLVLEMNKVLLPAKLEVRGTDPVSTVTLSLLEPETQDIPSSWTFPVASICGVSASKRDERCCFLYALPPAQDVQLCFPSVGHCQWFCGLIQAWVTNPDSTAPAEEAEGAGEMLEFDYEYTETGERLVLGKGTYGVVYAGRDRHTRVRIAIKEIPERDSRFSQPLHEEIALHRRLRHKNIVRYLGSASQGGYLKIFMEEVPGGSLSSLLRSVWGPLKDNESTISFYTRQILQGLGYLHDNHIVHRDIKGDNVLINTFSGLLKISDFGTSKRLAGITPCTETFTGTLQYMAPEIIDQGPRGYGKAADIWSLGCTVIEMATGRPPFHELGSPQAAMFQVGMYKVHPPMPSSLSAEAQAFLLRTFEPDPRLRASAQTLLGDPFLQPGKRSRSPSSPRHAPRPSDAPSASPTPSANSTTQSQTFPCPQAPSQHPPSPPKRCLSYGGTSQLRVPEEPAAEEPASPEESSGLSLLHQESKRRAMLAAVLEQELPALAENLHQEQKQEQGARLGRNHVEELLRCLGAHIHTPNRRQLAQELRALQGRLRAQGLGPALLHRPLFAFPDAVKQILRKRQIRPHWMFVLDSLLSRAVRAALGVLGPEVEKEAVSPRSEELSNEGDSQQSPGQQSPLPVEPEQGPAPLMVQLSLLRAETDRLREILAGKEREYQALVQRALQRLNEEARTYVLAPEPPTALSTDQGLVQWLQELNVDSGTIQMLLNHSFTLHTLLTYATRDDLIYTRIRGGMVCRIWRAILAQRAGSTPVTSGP
SMILES,remaining binding at 0.05 µM (MKK7 (MAP2K7)),remaining binding at 0.2 µM (MKK7 (MAP2K7)),remaining binding at 1 µM (MKK7 (MAP2K7)),remaining binding at 10 µM (MKK7 (MAP2K7)),remaining binding at 0.05 µM (TAOK2),remaining binding at 0.2 µM (TAOK2),remaining binding at 1 µM (TAOK2),remaining binding at 10 µM (TAOK2),remaining binding at 0.05 µM (ASK2 (MAP3K6)),remaining binding at 0.2 µM (ASK2 (MAP3K6)),remaining binding at 1 µM (ASK2 (MAP3K6)),remaining binding at 10 µM (ASK2 (MAP3K6)),"IC50 (TAOK2; estimated Kd, averaged pointwise estimates, transformed Hill equation, read-out: Calculated estimate of IC50)"
CCCS(=O)(=O)Nc1ccc(F)c(C(=O)c2c[nH]c3ncc(Cl)cc23)c1F [PLX4720],100%,100%,100%,84%,92%,100%,93%,51%,94%,100%,100%,100%,
CCCS(=O)(=O)Nc1ccc(F)c(C(=O)c2c[nH]c3ncc(-c4ccc(Cl)cc4)cc23)c1F [vemurafenib],97%,95%,94%,85%,98%,92%,95%,70%,94%,98%,100%,74%,11.8 µM
